Experiment [1] deals with Myzus persicae. Kind of experiment: Desiccation/starvation tolerance assay after peptide microinjection. The format is in vivo. As to conditions: Myzus persicae, microinjection; for Documented effect on desiccation/starvation mortality: final concentration ×10^−5 M, relative to vehicle control; for LTime50 (h), test / Median ± IQR survival (h), test: ×10^−5 M, desiccation and starvation stress, test group. Here is the method: (§1) Neuropeptides were administered to test aphids via microinjection to allow for rapid mass screening of neuropeptide analogue efficacy. For this, native neuropeptides were diluted in double distilled water (DDH2O) to a concentration of 1×10^−5 M. Neuropeptide analogues were diluted in DDH2O to the following concentrations: kinin analogues 1728 (2.5×10^−5 M), 2139 (3.5×10^−5 M), 2139-Ac (3.5×10^−5 M); CAP2b analogues 1895 (3.5×10^−5 M), 1896 (3.5×10^−5 M), 1902 (3.5×10^−5 M), 2089 (3.9×10^−5 M), 2123 (1.0×10^−5 M), 2125 (1.0×10^−5 M), 2129 (2.0×10^−5 M). Once at the desired concentration, neuropeptide solutions were administered to test aphids at an injection volume of 9 nl based on total haemolymph volume, to produce an approximate 1:20 dilution of injection volume to haemolymph. Injections were performed using a pulled glass needle and a Nanoject II Auto-Nanoliter Injector (Drummond Scientific Company, Broomall, Pa.). A vehicle control was set up for each treatment/day of experiments to account for variation in needle pulling. For this, control aphids were injected with 9 nl of DDH2O and subsequently exposed to the same experiments as aphids receiving the neuropeptide treatment. Neuropeptide treated and vehicle control aphids were subsequently used in the stress bioassays detailed below.
(§2) Anholocyclic adults of mixed age of either M. persicae or M. rosae were selected from the stock cultures and treated with a native neuropeptide or neuropeptide analogue via microinjection using the method detailed above. Treated and vehicle control aphids were allowed to recover on excised leaves of the host plant for 1 h before being placed in an empty ventilated microcage (L=4 cm, 0=9.5 cm) at densities of 10 per cage. In total, 30-40 aphids were treated for each neuropeptide treatment group and a further 30-40 for the associated vehicle control group. From the point of placement in the microcage (taken as 0 h), aphid survival was checked every hour during daylight hours and approximately every 4 h during night-time hours until the final aphid died. Survival data were subsequently analysed using a Log-rank (Mantel-Cox) text in GraphPad Prism version 7.0. LTime50 (the time taken to kill 50% of the test population) values were calculated via Probit Analysis in Minitab 17 (Minitab Inc., State College, Pa.).

A further experiment relates to Macrosiphum rosae. The description is as above. It counts as in vivo. As to conditions: Macrosiphum rosae, microinjection; for Documented effect on desiccation/starvation mortality: final concentration ×10^−5 M, relative to vehicle control; for LTime50 (h), test / Median IQR survival (h), test: ×10^−5 M, desiccation and starvation stress, test group. Here is the method:
as §1, §2

Another experiment deals with Aphids. The experiment in a line: Feeding with peptides in artificial diet, mortality without other stress. The format is in vivo, Myzus persicae. As to conditions: for effect on mortality in the absence of additional stressors: no additional stress conditions. As to the method:
A standard artificial diet for M. persicae was produced as described in Van Emden (2009) and provided the basal diet to which neuropeptide analogues were added for screening purposes. Neuropeptide analogues were diluted individually in the artificial diet to a pre-determined recommended concentration as follows: 1895 (3.5×10^−5 M) and 2019 (2.0×10^−5 M).
Feeding apparatus were constructed using a set-up developed by Sadeghi et al (2009). For this, a piece of Parafilm was stretched over a Plexiglas ring (h=4 cm, Ø=3 cm) and 100 μl of the artificial diet containing the desired neuropeptide analogue was pipette onto the Parafilm membrane. A second piece of Parafilm, stretched to 4 times the original thickness, was stretched over the original layer, sandwiching the artificial diet between two layers of Parafilm. A strip of Parafilm was wrapped around the circumference of the Plexiglas ring, sealing in the diet. A plastic ring (h=1.2 cm, Ø=3.4 cm) was subsequently placed over the Parafilm layer, creating a walled chamber in which to house test aphids in contact with the Parafilm layer containing the artificial diet. Finally, a small Petri dish (h=1 cm, Ø=3.6 cm), modified for ventilation with net cloth, was placed on top of each feeding apparatus to prevent aphid escape.
To obtain aphids for use in experiments, reproducing anholocyclic adults were placed on individual excised leaves of Chinese cabbage at densities of 5 adults per leaf and allowed to reproduce for 24 h. The stem of each excised leaf was held within a 0.5 mL Eppendorf tube containing water via a punctured hole in the Eppendorf lid, and placed individually within a microcage (L=4 cm, Ø=9.5 cm). Following 24 h, adults were removed and resultant first instar nymphs (<1 day old and synchronised in age to within 24 h) retained. Nymphs were allowed to develop on the Chinese cabbage for 5 days. On day 5, (3rd instar) nymphs were transferred onto the artificial diet containing a neuropeptide analogue at densities of 1 per feeding chamber and monitored daily until death. Aphids were transferred to fresh artificial diet (containing neuropeptide analogue) every 5 days. Life history traits recorded include age at first reproduction, number of nymphs produced per 24 h period, and lifespan. From these parameters, lifetime fecundity and daily fecundity were calculated. Control groups were set up involving aphids reared on the host plant, an artificial diet without a neuropeptide analogue, and an artificial diet containing the native CAPA neuropeptide.
Aphids were reared on artificial diet, alone or supplemented with peptide 2129, 2315, 2316 or 2320. A control group (no test peptide) was reared on a host plant. No other stress conditions were applied.
For peptides 2315, 2316 and 2320, mortality was assessed at 48, 72, 96, 120 and 144 hours. A group of 9 or 10 insects was used for each time point, and all experiments were performed at least 4 times.

In experiment [2] the test system is Myzus persicae. Kind of experiment: Feeding of aphids with peptides in artificial diet; life span and fecundity. The format is in vivo. Conditions: M. persicae on artificial diet containing the peptide; mean ± SE. As to the method: A standard artificial diet for M. persicae was produced as described in Van Emden (2009) and provided the basal diet to which neuropeptide analogues were added for screening purposes. Neuropeptide analogues were diluted individually in the artificial diet to a pre-determined recommended concentration as follows: 1895 (3.5×10^-5 M) and 2019 (2.0×10^-5 M). Feeding apparatus were constructed using a set-up developed by […] et al (2009). For this, a piece of Parafilm was stretched over a Plexiglas ring (h=4 cm, Ø=3 cm) and 100 μl of the artificial diet containing the desired neuropeptide analogue was pipette onto the Parafilm membrane. A second piece of Parafilm, stretched to 4 times the original thickness, was stretched over the original layer, sandwiching the artificial diet between two layers of Parafilm. A strip of Parafilm was wrapped around the circumference of the Plexiglas ring, sealing in the diet. A plastic ring (h=1.2 cm, Ø=3.4 cm) was subsequently placed over the Parafilm layer, creating a walled chamber in which to house test aphids in contact with the Parafilm layer containing the artificial diet. Finally, a small Petri dish (h=1 cm, Ø=3.6 cm), modified for ventilation with net cloth, was placed on top of each feeding apparatus to prevent aphid escape. To obtain aphids for use in experiments, reproducing anholocyclic adults were placed on individual excised leaves of Chinese cabbage at densities of 5 adults per leaf and allowed to reproduce for 24 h. The stem of each excised leaf was held within a 0.5 mL Eppendorf tube containing water via a punctured hole in the Eppendorf lid, and placed individually within a microcage (L=4 cm, Ø=9.5 cm). Following 24 h, adults were removed and resultant first instar nymphs (<1 day old and synchronised in age to within 24 h) retained. Nymphs were allowed to develop on the Chinese cabbage for 5 days. On day 5, (3rd instar) nymphs were transferred onto the artificial diet containing a neuropeptide analogue at densities of 1 per feeding chamber and monitored daily until death. Aphids were transferred to fresh artificial diet (containing neuropeptide analogue) every 5 days. Life history traits recorded include age at first reproduction, number of nymphs produced per 24 h period, and lifespan. From these parameters, lifetime fecundity and daily fecundity were calculated. Control groups were set up involving aphids reared on the host plant, an artificial diet without a neuropeptide analogue, and an artificial diet containing the native CAPA neuropeptide.

“Also recorded” adds a separate entry of the source. Numbered stars: 1 amine (or outer) side, 2 acyl side, 3 side chain; on linkers, the order of the positions; unused ones are H or OH. Square brackets hold non-standard residues; d marks the D form. Ends that are not written are not given here. Suc = O=C(CCC(=O)[*:2])[*:1]; β3hL = CC(C)C[C@H](N)CC(=O)O; 2Abf = not defined here

As to 2Abf-Suc-FT[Hyp]RV-NH2 [compound 2123], in the experiment on Myzus persicae [1], the “Documented effect on desiccation/starvation mortality” value is recorded as “No effect”; the “LTime50 (h), test” value was 24.3 | 21.1 h; the “Median ± IQR survival (h), test” value is on record as 25.0 ± 13.5 | 21.0 ± 13.5 h. In the experiment with Macrosiphum rosae, the “Documented effect on desiccation/starvation mortality” value was “No effect”; the “LTime50 (h), test” value was 21.6 | 19.1 h; the “Median IQR survival (h), test” value was 24.0 ± 11.0 | 16.0 ± 18.0 h.
On to “ASGL[βhL]AFPRV-NH2 (ASGL[β3hL]AFPRV-NH2; N-terminus assumed; SMILES CC(C)C[C@@H](CC(=O)N[C@@H](C)C(=O)N[C@@H](Cc1ccccc1)C(=O)N1CCC[C@H]1C(=O)N[C@@H](CCCNC(=N)N)C(=O)N[C@H](C(N)=O)C(C)C)NC(=O)[C@H](CC(C)C)NC(=O)CNC(=O)[C@H](CO)NC(=O)[C@H](C)N) [compound 2316]”, for which, in the experiment on Aphids (artificial diet supplemented with peptide, 48 h), the “Dead (48 h)” value came out at 86.0%. For the same substance, the “Dead (72 h)” value in the experiment with Aphids (artificial diet supplemented with peptide, 72 h) is given as 88.0%. In addition, in the experiment on Aphids (artificial diet supplemented with peptide, 96 h), the “Dead (96 h)” value was determined as 90.0%. Also, the “Dead (120 h)” value in the experiment on Aphids (artificial diet supplemented with peptide, 120 h) was determined as 92.0%. For the same substance, the “Dead (144 h)” value with Aphids (artificial diet supplemented with peptide, 144 h) amounted to 92.0%. Besides, the “effect on mortality in the absence of additional stressors” value is “increase mortality in the absence of additional stressors” in the experiment on Aphids and “increase mortality in the absence of additional stress conditions” in the experiment on Aphids (listed as 2136).
Take “2Abf-Suc-FTPRI-NH2 ({2Abf-Suc}-FTPRI-NH2; reading uncertain; also: printed as 2Abf-Suc-FTPRI-NH2) [compound 1896]”: in the experiment with Myzus persicae [1], the “Documented effect on desiccation/starvation mortality” value is on record as “No effect”; the “LTime50 (h), test” value is 22.2 | 24.8 h; the “Median ± IQR survival (h), test” value is given as 24.0 ± 0 9.0 | 25.0 ± 10.5 h. In the experiment with Macrosiphum rosae, the “Documented effect on desiccation/starvation mortality” value is on record as “No effect”; the “LTime50 (h), test” value is listed as 28.9 | 24.7 h; the “Median IQR survival (h), test” value is 27.0 ± 17.3 | 23.0 ± 18.5 h.
With “Native Kinin: native kinin neuropeptide based on the kinin structure of Drosophila melanogaster, synthesized by Cambridge Peptides (NSVVLGKKQRFHSWG; ends and bridges not checked) [reference compound]”, in the experiment with Myzus persicae [2], the “Age at 1st reproduction” value came to 11.1 ± 0.5 days, the Ave. daily fecundity stood at 1.6 ± 0.2 nymphs, the “Days as reproducing adult” value is 5.9 ± 1.0 and the “Life span” value amounted to 18.8 ± 1.3 days. This substance also registered a Lifetime fecundity with Myzus persicae [2] of 9.7 ± 1.9 nymphs.
In the case of “2Abf-Suc-FKPRL-NH2 ({2Abf-Suc}-FKPRL-NH2; reading uncertain; also: printed as 2Abf-Suc-FKPRL-NH2) [compound 1902]”, in the experiment on Myzus persicae [1], the “Documented effect on desiccation/starvation mortality” value is listed as “No effect”; the “LTime50 (h), test” value is recorded as 22.2 | 21.8 h; the “Median ± IQR survival (h), test” value was 24.0 ± 0 9.0 | 23.5 ± 7.0 h. In the experiment with Macrosiphum rosae, the “Documented effect on desiccation/starvation mortality” value was “No effect”; the “LTime50 (h), test” value is listed as 28.9 | 26.4 h; the “Median IQR survival (h), test” value is 27.0 ± 17.3 | 25.0 ± 10.0 h.
For “FF[Aib]WG-NH2 [compound 2139, reference compound]”, in the experiment on Myzus persicae [1], the “Documented effect on desiccation/starvation mortality” value was “non-significant survival curves; also recorded: No effect”; the “LTime50 (h), test” value is given as 18.3 | 22.4 h; the “Median ± IQR survival (h), test” value is 22.0 ± 16.5 | 25.0 ± 21.0 h. In the experiment on Macrosiphum rosae, the “Documented effect on desiccation/starvation mortality” value is “non-significant survival curves; also recorded: No effect”; the “LTime50 (h), test” value is listed as 31.7 | 29.8 h; the “Median IQR survival (h), test” value was 29.5 ± 22.0 | 27.0 ± 26.0 h.
On to “[Aib]FF[Aib]WG-NH2 [compound 1728, reference compound]”, for which, in the experiment on Myzus persicae [1], the “Documented effect on desiccation/starvation mortality” value is listed as “No effect”; the “LTime50 (h), test” value is 18.3 | 25.0 h; the “Median ± IQR survival (h), test” value was 22.0 ± 16.5 | 26.0 ± 23.5 h. For the same substance, in the experiment with Macrosiphum rosae, the “Documented effect on desiccation/starvation mortality” value is listed as “No effect”; the “LTime50 (h), test” value is recorded as 31.7 | 31.6 h; the “Median IQR survival (h), test” value is recorded as 29.5 ± 22.0 | 24.0 ± 28.5 h.
“GANMGLYAFPRVamide (GANMGLYAFPRV-NH2) [Native Capa, reference compound]”: in the experiment with Myzus persicae [2], the “Age at 1st reproduction” value came out at 11.2 ± 0.2 days, the Ave. daily fecundity worked out at 1.6 ± 0.1 nymphs, the “Days as reproducing adult” value is on record as 7.6 ± 0.6 and the “Life span” value was found to be 21.3 ± 0.7 days. In addition, the Lifetime fecundity in the experiment on Myzus persicae [2] was determined as 12.0 ± 1.2 nymphs.
As for “2Abf-Suc-FTPRV-NH2 ({2Abf-Suc}-FTPRV-NH2; reading uncertain; also: printed as 2Abf-Suc-FTPRV-NH2) [compound 2089]”, in the experiment on Myzus persicae [1], the “Documented effect on desiccation/starvation mortality” value is on record as “No effect”; the “LTime50 (h), test” value is 10.9 | 13.0 h; the “Median ± IQR survival (h), test” value is on record as 11.0 ± 12.0 | 16.5 ± 10.3 h. In the experiment with Macrosiphum rosae, the “Documented effect on desiccation/starvation mortality” value is reported as “No effect”; the “LTime50 (h), test” value is listed as 23.2 | 16.4 h; the “Median IQR survival (h), test” value was 23.0 ± 17.0 | 17.0 ± 21.3 h.

Source of the values: patent US20220039395A1, “INSECT CONTROL AGENTS” (priority 2018, published 2022).
